The kinase profiling compilation of Christmann-Franck et al. (2016)

Key:
Assay in all cases: KINOMEscan competition binding
Details in all cases: compound 10.0 µM
[1] = biological target: MAP2K1 (human) (UniProt Q02750)
[2] = biological target: RPS6KA1 KD2 (human) (UniProt Q15418)
[3] = biological target: HIPK1 (human) (UniProt Q86Z02)
[4] = biological target: CDK4 CCND1 (human) (UniProt P11802+P24385)
[5] = biological target: MAP4K3 (human) (UniProt Q8IVH8)
[6] = biological target: EPHA3 (human) (UniProt P29320)
[7] = biological target: PRKACB (human) (UniProt P22694)
[8] = biological target: PTK2 (human) (UniProt Q05397)
[9] = biological target: WEE2 (human) (UniProt P0C1S8)
[10] = biological target: CSK (human) (UniProt P41240)
Sequence of CSK (human) (P41240 whole entry, looked up): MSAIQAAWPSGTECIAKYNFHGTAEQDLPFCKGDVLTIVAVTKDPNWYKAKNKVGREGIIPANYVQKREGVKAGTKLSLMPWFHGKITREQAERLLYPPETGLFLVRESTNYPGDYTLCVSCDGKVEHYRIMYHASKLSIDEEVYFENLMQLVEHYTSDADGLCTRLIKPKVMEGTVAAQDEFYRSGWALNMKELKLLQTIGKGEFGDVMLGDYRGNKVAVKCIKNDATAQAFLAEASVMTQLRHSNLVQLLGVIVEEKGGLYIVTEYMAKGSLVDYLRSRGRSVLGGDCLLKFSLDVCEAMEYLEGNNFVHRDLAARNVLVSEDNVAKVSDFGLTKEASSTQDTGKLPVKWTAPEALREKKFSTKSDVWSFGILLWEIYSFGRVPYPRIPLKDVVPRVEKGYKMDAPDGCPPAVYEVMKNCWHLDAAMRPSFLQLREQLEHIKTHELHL

[11] = biological target: PRKCD (human) (UniProt Q05655)
[12] = biological target: IRAK4 (human) (UniProt Q9NWZ3)
[13] = biological target: BMPR2 (human) (UniProt Q13873)
Sequence of BMPR2 (human) (Q13873 whole entry, looked up): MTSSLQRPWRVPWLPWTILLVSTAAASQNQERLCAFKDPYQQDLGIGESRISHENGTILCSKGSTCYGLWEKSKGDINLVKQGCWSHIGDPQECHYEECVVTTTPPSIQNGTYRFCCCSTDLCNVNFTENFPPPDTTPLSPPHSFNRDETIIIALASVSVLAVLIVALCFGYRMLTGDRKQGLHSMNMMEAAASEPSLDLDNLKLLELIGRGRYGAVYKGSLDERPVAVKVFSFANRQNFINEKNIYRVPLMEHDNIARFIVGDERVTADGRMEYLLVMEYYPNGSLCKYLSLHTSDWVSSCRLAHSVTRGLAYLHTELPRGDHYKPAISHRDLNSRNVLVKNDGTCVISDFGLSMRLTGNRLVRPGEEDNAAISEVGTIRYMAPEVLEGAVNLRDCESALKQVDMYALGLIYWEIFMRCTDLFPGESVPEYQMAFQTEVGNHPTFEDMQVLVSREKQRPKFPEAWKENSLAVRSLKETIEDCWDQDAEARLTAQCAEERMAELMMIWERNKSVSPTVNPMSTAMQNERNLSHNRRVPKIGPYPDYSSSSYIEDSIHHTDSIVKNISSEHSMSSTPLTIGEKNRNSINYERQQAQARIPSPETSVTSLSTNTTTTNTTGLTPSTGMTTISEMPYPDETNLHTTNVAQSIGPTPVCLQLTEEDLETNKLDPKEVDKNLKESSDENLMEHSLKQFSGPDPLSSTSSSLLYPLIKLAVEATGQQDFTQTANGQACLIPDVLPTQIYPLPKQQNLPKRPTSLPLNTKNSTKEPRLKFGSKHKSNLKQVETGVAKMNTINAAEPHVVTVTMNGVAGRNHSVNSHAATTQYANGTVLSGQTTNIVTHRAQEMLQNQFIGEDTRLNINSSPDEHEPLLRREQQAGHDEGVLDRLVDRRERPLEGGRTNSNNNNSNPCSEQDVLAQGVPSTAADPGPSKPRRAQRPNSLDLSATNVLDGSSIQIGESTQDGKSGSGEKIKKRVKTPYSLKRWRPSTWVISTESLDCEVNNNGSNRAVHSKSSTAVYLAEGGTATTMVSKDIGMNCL

[14] = biological target: PIK3C2B (human) (UniProt O00750)
[15] = biological target: CDKL5 (human) (UniProt O76039)
[16] = biological target: STK25 (human) (UniProt O00506)
Sequence of STK25 (human) (O00506 whole entry, looked up): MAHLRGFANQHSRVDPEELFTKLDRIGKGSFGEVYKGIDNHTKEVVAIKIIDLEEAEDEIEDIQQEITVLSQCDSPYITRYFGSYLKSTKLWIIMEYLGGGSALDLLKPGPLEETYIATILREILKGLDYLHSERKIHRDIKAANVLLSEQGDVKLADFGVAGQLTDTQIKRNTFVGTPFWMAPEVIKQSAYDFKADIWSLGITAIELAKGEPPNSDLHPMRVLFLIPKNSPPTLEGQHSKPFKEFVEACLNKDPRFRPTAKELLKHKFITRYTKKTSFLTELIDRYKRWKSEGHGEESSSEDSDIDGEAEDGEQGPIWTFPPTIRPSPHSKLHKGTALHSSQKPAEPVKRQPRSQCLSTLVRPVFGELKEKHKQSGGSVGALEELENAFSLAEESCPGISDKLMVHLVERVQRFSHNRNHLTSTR

[17] = biological target: FGR (human) (UniProt P09769)
[18] = biological target: CDK16 (human) (UniProt Q00536)
[19] = biological target: MAP4K1 (human) (UniProt Q92918)
[20] = biological target: PIP5K1A (human) (UniProt Q99755)
[21] = biological target: MAPKAPK2 (human) (UniProt P49137)
Sequence of MAPKAPK2 (human) (P49137 whole entry, looked up): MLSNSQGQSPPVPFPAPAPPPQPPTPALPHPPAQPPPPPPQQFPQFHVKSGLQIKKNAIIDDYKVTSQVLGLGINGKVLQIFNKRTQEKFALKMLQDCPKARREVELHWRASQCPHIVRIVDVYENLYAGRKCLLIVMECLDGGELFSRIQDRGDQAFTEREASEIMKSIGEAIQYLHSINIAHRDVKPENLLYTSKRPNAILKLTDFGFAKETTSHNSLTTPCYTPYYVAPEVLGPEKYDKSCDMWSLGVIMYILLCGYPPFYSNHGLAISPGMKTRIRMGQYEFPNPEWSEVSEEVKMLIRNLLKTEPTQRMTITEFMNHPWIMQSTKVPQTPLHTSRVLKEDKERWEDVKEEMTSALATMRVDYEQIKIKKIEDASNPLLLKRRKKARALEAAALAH

[22] = biological target: TAOK2 (human) (UniProt Q9UL54)
[23] = biological target: IGF1R (human) (UniProt P08069)
[24] = biological target: OXSR1 (human) (UniProt O95747)
[25] = biological target: MAP3K13 (human) (UniProt O43283)
[26] = biological target: FYN (human) (UniProt P06241)
[27] = biological target: MAPK15 (human) (UniProt Q8TD08)
[28] = biological target: TIE1 (human) (UniProt P35590)
[29] = biological target: PIP4K2C (human) (UniProt Q8TBX8)
[30] = biological target: STK36 (human) (UniProt Q9NRP7)
[31] = biological target: MARK4 (human) (UniProt Q96L34)
Sequence of MARK4 (human) (Q96L34 whole entry, looked up): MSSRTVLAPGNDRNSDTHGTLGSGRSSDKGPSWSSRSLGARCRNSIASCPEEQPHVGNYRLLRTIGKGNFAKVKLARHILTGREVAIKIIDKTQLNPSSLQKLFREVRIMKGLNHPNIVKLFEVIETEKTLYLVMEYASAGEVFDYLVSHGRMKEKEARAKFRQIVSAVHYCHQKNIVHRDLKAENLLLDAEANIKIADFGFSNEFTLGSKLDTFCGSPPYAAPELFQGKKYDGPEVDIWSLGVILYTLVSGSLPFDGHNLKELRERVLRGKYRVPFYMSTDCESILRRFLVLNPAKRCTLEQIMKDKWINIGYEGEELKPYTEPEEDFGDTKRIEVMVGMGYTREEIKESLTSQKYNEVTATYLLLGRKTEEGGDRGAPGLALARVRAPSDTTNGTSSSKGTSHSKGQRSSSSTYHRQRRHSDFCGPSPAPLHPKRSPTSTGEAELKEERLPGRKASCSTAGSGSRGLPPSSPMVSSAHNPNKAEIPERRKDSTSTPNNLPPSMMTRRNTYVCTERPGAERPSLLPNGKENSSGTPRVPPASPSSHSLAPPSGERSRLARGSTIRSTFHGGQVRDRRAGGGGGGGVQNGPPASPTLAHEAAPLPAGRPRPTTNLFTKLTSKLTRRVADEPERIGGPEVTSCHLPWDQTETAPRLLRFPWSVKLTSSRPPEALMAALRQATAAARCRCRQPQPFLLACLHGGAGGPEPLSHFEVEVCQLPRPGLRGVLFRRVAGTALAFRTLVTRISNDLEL

[32] = biological target: CDC42BPB (human) (UniProt Q9Y5S2)
[33] = biological target: TRPM6 (human) (UniProt Q9BX84)
[34] = biological target: SRPK1 (human) (UniProt Q96SB4)
[35] = biological target: ACVR1B (human) (UniProt P36896)
[36] = biological target: PRKCQ (human) (UniProt Q04759)
Sequence of PRKCQ (human) (Q04759 whole entry, looked up): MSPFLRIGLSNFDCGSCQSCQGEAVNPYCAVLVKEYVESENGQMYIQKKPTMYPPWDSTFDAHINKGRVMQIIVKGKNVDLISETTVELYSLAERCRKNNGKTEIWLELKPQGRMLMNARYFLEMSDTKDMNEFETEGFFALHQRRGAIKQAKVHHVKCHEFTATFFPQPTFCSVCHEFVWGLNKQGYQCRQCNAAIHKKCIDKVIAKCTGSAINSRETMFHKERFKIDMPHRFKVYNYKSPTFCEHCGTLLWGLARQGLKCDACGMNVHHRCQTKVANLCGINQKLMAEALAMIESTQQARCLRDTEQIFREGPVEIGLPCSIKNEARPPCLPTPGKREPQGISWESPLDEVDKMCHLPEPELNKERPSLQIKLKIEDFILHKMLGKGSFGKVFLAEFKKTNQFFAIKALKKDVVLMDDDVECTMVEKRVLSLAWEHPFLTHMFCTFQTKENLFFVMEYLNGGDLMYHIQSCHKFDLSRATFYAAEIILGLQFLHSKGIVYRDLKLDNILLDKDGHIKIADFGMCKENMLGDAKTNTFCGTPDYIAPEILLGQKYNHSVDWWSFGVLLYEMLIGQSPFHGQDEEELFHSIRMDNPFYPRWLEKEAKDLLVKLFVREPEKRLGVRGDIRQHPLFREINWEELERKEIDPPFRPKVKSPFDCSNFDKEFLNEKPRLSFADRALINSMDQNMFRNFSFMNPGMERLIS

[37] = biological target: PAK3 (human) (UniProt O75914)
[38] = biological target: TYRO3 (human) (UniProt Q06418)
[39] = biological target: CLK2 (human) (UniProt P49760)
[40] = biological target: STK32C (human) (UniProt Q86UX6)

Sequence of HIPK1 (human) (Q86Z02 whole entry, looked up): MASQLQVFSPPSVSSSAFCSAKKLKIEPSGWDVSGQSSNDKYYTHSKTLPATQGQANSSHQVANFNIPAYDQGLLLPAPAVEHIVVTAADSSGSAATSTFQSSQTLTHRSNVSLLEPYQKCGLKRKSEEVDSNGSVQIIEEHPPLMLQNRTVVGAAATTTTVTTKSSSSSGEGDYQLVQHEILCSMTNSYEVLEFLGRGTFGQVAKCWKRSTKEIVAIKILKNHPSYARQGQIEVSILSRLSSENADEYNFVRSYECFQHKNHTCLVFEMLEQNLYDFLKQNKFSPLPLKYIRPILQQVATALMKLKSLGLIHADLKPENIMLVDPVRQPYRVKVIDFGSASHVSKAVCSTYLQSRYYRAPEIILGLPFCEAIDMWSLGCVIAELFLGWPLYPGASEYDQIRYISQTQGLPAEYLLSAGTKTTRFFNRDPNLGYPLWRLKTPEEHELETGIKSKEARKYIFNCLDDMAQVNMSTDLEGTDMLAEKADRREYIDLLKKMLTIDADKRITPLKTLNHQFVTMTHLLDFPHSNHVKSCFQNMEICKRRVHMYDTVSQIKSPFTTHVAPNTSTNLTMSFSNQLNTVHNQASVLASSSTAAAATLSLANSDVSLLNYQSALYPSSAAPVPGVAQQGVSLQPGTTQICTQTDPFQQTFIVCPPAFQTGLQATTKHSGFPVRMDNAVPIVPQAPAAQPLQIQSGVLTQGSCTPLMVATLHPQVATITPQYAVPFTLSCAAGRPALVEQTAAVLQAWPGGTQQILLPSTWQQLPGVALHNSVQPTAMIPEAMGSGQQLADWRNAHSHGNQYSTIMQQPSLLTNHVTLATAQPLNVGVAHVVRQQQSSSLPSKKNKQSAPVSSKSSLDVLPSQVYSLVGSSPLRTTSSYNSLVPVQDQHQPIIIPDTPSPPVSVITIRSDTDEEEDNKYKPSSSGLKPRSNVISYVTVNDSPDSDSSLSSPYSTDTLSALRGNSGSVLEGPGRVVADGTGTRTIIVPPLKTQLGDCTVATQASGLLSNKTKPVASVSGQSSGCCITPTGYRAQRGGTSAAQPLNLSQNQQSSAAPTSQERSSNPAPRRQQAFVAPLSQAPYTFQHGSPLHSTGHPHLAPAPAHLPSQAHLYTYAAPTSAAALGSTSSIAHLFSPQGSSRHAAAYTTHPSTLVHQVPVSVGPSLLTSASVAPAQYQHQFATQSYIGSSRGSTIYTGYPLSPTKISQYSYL

| Structure (SMILES) | kinase still bound, per cent of control [1] | kinase still bound, per cent of control [2] | kinase still bound, per cent of control [3] | kinase still bound, per cent of control [4] | kinase still bound, per cent of control [5] | kinase still bound, per cent of control [6] | kinase still bound, per cent of control [7] | kinase still bound, per cent of control [8] | kinase still bound, per cent of control [9] | kinase still bound, per cent of control [10] | kinase still bound, per cent of control [11] | kinase still bound, per cent of control [12] | kinase still bound, per cent of control [13] | kinase still bound, per cent of control [14] | kinase still bound, per cent of control [15] | kinase still bound, per cent of control [16] | kinase still bound, per cent of control [17] | kinase still bound, per cent of control [18] | kinase still bound, per cent of control [19] | kinase still bound, per cent of control [20] | also measured |
| --- | --- | --- | --- | --- | --- | --- | --- | --- | --- | --- | --- | --- | --- | --- | --- | --- | --- | --- | --- | --- | --- |
| CCN1CCN(Cc2ccc(NC(=O)c3ccc(C)c(/C=C/c4cnc5[nH]ccc5c4OC)c3)cc2C(F)(F)F)CC1 | 74% | 20% | 74% | 74% | 14% | 4.8% | 100% | 67% | 4.8% | 0.75% | 49% | 48% | 6.6% | 100% | 78% | 100% | 0.15% | 98% | 0% | 2.6% | kinase still bound, per cent of control [21]: 100%; kinase still bound, per cent of control [22]: 0.5%; kinase still bound, per cent of control [23]: 100%; kinase still bound, per cent of control [24]: 74%; kinase still bound, per cent of control [25]: 20%; kinase still bound, per cent of control [26]: 1.2%; kinase still bound, per cent of control [27]: 67%; kinase still bound, per cent of control [28]: 4.6%; kinase still bound, per cent of control [29]: 100%; kinase still bound, per cent of control [30]: 0.3%; kinase still bound, per cent of control [31]: 100%; kinase still bound, per cent of control [32]: 65%; kinase still bound, per cent of control [33]: 100%; kinase still bound, per cent of control [34]: 1.8%; kinase still bound, per cent of control [35]: 98%; kinase still bound, per cent of control [36]: 31%; kinase still bound, per cent of control [37]: 6%; kinase still bound, per cent of control [38]: 100%; kinase still bound, per cent of control [39]: 71%; kinase still bound, per cent of control [40]: 100% |
| COc1cc2ncnc(Nc3cccc(Cl)c3)c2cc1OC | 25% | 28% | 48% | 90% | 100% | 28% | 100% | 100% | 81% | 62% | 97% | 8.9% | 100% | 7.6% | 97% | 77% | 32% | 90% | 93% | 93% | kinase still bound, per cent of control [21]: 100%; kinase still bound, per cent of control [22]: 76%; kinase still bound, per cent of control [23]: 100%; kinase still bound, per cent of control [24]: 71%; kinase still bound, per cent of control [25]: 100%; kinase still bound, per cent of control [26]: 81%; kinase still bound, per cent of control [27]: 100%; kinase still bound, per cent of control [28]: 71%; kinase still bound, per cent of control [29]: 31%; kinase still bound, per cent of control [30]: 54%; kinase still bound, per cent of control [31]: 100%; kinase still bound, per cent of control [32]: 98%; kinase still bound, per cent of control [33]: 77%; kinase still bound, per cent of control [34]: 67%; kinase still bound, per cent of control [35]: 100%; kinase still bound, per cent of control [36]: 100%; kinase still bound, per cent of control [37]: 25%; kinase still bound, per cent of control [38]: 23%; kinase still bound, per cent of control [39]: 53%; kinase still bound, per cent of control [40]: 100% |
